Experimental data reported in ChEMBL document CHEMBL1149805, “Antibacterial activity of a novel series of 3-bromo-4-(1H-3-indolyl)-2,5-dihydro-1H-2,5-pyrroledione derivatives--an extended structure-activity relationship study” (Eur J Med Chem, 2008).
In brackets after ≈: the same amount, converted by molar mass. Activity calls are given as the source filed them. No rule for the calls is given here.

Assays:
Candida albicans = experiment: Antibacterial activity against Candida albicans after 24 hrs by broth microdilution method; assay type: functional, organism-based
[1] = Partition coefficient, log P of the compound; assay type: physicochemical; settings: octanol/water
Staphylococcus aureus = experiment: Antibacterial activity against Staphylococcus aureus 134/93 after 24 hrs by broth microdilution method; assay type: functional; settings: for MIC: Staphylococcus aureus, 134/93, 24 h
Escherichia coli = experiment: Antibacterial activity against Escherichia coli after 24 hrs by broth microdilution method; assay type: functional, organism-based
[2] = tested on: Mycolicibacterium smegmatis; experiment: Antibacterial activity against Mycobacterium smegmatis SG987 after 24 hrs by broth microdilution method; assay type: functional; settings: for MIC: Mycolicibacterium smegmatis, SG987, 24 h

O=C1NC(=O)C(c2c(-c3ccc(OCc4cccc5ccccc45)cc3)[nH]c3ccccc23)=C1Br
Activity (Candida albicans): inactive
logP [1]: 3.76
-logMIC (Staphylococcus aureus): 5.8
MIC (Staphylococcus aureus): 1.5 µM (≈ 0.785 µg/mL)
Activity (Escherichia coli): inactive
-logMIC [2]: 5.5
MIC [2]: 3.16 µM (≈ 1.65 µg/mL)

CCCCCCOc1ccc2[nH]c(-c3cccc(OC)c3)c(C3=C(Br)C(=O)NC3=O)c2c1
Activity (Candida albicans): inactive
logP [1]: 3.92
-logMIC (Staphylococcus aureus): 4.9
MIC (Staphylococcus aureus): 12.6 µM (≈ 6.27 µg/mL)
Activity (Escherichia coli): inactive
-logMIC [2]: 5.2
MIC [2]: 6.31 µM (≈ 3.14 µg/mL)

CCOc1ccc2[nH]c(-c3cccc(OC)c3)c(C3=C(Br)C(=O)NC3=O)c2c1
Activity (Candida albicans): inactive
logP [1]: 2.97
-logMIC (Staphylococcus aureus): 5.5
MIC (Staphylococcus aureus): 3.5 µM (≈ 1.54 µg/mL)
Activity (Escherichia coli): inactive
-logMIC [2]: 5.2
MIC [2]: 6.31 µM (≈ 2.78 µg/mL)

CCc1ccc2[nH]c(-c3ccc(OC)cc3)c(C3=C(Br)C(=O)NC3=O)c2c1
Activity (Candida albicans): inactive
logP [1]: 3.23
-logMIC (Staphylococcus aureus): 6.6
MIC (Staphylococcus aureus): 0.23 µM (≈ 0.0978 µg/mL)
Activity (Escherichia coli): inactive
-logMIC [2]: 5.4
MIC [2]: 3.67 µM (≈ 1.56 µg/mL)

COc1ccc2[nH]c(-c3ccccc3)c(C3=C(Br)C(=O)NC3=O)c2c1
Activity (Candida albicans): inactive
logP [1]: 2.48
-logMIC (Staphylococcus aureus): 6
MIC (Staphylococcus aureus): 1 µM (≈ 0.397 µg/mL)
Activity (Escherichia coli): inactive
-logMIC [2]: 4.5
MIC [2]: 31.5 µM (≈ 12.5 µg/mL)

CCCOc1ccc2[nH]c(-c3ccccc3)c(C3=C(Br)C(=O)NC3=O)c2c1
Activity (Candida albicans): inactive
logP [1]: 3.16
-logMIC (Staphylococcus aureus): 6
MIC (Staphylococcus aureus): 0.95 µM (≈ 0.404 µg/mL)
Activity (Escherichia coli): inactive
-logMIC [2]: 4.2
MIC [2]: 58.8 µM (≈ 25 µg/mL)

CCc1cccc2c(C3=C(Br)C(=O)NC3=O)c(-c3ccc(OC)cc3)[nH]c12
Activity (Candida albicans): inactive
logP [1]: 3.35
-logMIC (Staphylococcus aureus): 6.3
MIC (Staphylococcus aureus): 0.5 µM (≈ 0.213 µg/mL)
Activity (Escherichia coli): inactive
-logMIC [2]: 4.5
MIC [2]: 29.4 µM (≈ 12.5 µg/mL)

O=C(CCCCCc1[nH]c2ccccc2c1C1=C(Br)C(=O)NC1=O)Nc1ccccc1
Activity (Candida albicans): inactive
logP [1]: 2.68
-logMIC (Staphylococcus aureus): 7
MIC (Staphylococcus aureus): 0.1 µM (≈ 0.048 µg/mL)
Activity (Escherichia coli): inactive
-logMIC [2]: 4.6
MIC [2]: 26 µM (≈ 12.5 µg/mL)

COc1ccc(-c2[nH]c3ccccc3c2C2=C(Br)C(=O)NC2=O)cc1
Activity (Candida albicans): inactive
logP [1]: 2.42
-logMIC (Staphylococcus aureus): 6.5
MIC (Staphylococcus aureus): 0.32 µM (≈ 0.127 µg/mL)
Activity (Escherichia coli): inactive
-logMIC [2]: 4.8
MIC [2]: 15.8 µM (≈ 6.3 µg/mL)

COc1ccc(-c2[nH]c3c(C)cccc3c2C2=C(Br)C(=O)NC2=O)cc1
Activity (Candida albicans): inactive
logP [1]: 3.12
-logMIC (Staphylococcus aureus): 5.7
MIC (Staphylococcus aureus): 2 µM (≈ 0.823 µg/mL)
Activity (Escherichia coli): inactive
-logMIC [2]: 4.5
MIC [2]: 30.4 µM (≈ 12.5 µg/mL)

CCCc1cccc2c(C3=C(Br)C(=O)NC3=O)c(-c3ccc(OC)cc3)[nH]c12
Activity (Candida albicans): inactive
logP [1]: 3.58
-logMIC (Staphylococcus aureus): 6.3
MIC (Staphylococcus aureus): 0.5 µM (≈ 0.22 µg/mL)
Activity (Escherichia coli): inactive
-logMIC [2]: 4.8
MIC [2]: 14.2 µM (≈ 6.24 µg/mL)

O=C(CCCc1[nH]c2ccccc2c1C1=C(Br)C(=O)NC1=O)Nc1ccccc1
Activity (Candida albicans): inactive
logP [1]: 2.56
-logMIC (Staphylococcus aureus): 5.8
MIC (Staphylococcus aureus): 1.7 µM (≈ 0.769 µg/mL)
Activity (Escherichia coli): inactive
-logMIC [2]: 4.3
MIC [2]: 55 µM (≈ 24.9 µg/mL)

CCCCCc1ccc2[nH]c(-c3ccc(OC)cc3)c(C3=C(Br)C(=O)NC3=O)c2c1
Activity (Candida albicans): inactive
logP [1]: 4.1
-logMIC (Staphylococcus aureus): 6.1
MIC (Staphylococcus aureus): 0.85 µM (≈ 0.397 µg/mL)
Activity (Escherichia coli): inactive
-logMIC [2]: 5.5
MIC [2]: 3.3 µM (≈ 1.54 µg/mL)

CCCCCOc1ccc2[nH]c(-c3ccccc3)c(C3=C(Br)C(=O)NC3=O)c2c1
Activity (Candida albicans): inactive
logP [1]: 3.75
-logMIC (Staphylococcus aureus): 4.6
MIC (Staphylococcus aureus): 27 µM (≈ 12.2 µg/mL)
Activity (Escherichia coli): inactive
-logMIC [2]: 4.6
MIC [2]: 27.5 µM (≈ 12.5 µg/mL)

CCCCCc1cccc2c(C3=C(Br)C(=O)NC3=O)c(-c3ccccc3)[nH]c12
Activity (Candida albicans): inactive
logP [1]: 4.11
-logMIC (Staphylococcus aureus): 6.3
MIC (Staphylococcus aureus): 0.5 µM (≈ 0.219 µg/mL)
Activity (Escherichia coli): inactive
-logMIC [2]: 4.9
MIC [2]: 14.3 µM (≈ 6.25 µg/mL)

COc1cccc(-c2[nH]c3ccc(C)cc3c2C2=C(Br)C(=O)NC2=O)c1
Activity (Candida albicans): inactive
logP [1]: 3.12
-logMIC (Staphylococcus aureus): 6.6
MIC (Staphylococcus aureus): 0.2 µM (≈ 0.0823 µg/mL)
Activity (Escherichia coli): inactive
-logMIC [2]: 5.1
MIC [2]: 7.94 µM (≈ 3.27 µg/mL)

CCc1cccc2c(C3=C(Br)C(=O)NC3=O)c(-c3ccccc3)[nH]c12
Activity (Candida albicans): inactive
logP [1]: 3.42
-logMIC (Staphylococcus aureus): 5.7
MIC (Staphylococcus aureus): 2.51 µM (≈ 0.992 µg/mL)
Activity (Escherichia coli): inactive
-logMIC [2]: 4.5
MIC [2]: 31.7 µM (≈ 12.5 µg/mL)

CCOc1ccc2[nH]c(-c3ccc(OC)cc3)c(C3=C(Br)C(=O)NC3=O)c2c1
Activity (Candida albicans): inactive
logP [1]: 2.77
-logMIC (Staphylococcus aureus): 5.7
MIC (Staphylococcus aureus): 2 µM (≈ 0.883 µg/mL)
Activity (Escherichia coli): inactive
-logMIC [2]: 4.8
MIC [2]: 14.1 µM (≈ 6.22 µg/mL)

CCCCOc1ccc2[nH]c(-c3cccc(OC)c3)c(C3=C(Br)C(=O)NC3=O)c2c1
Activity (Candida albicans): inactive
logP [1]: 3.46
-logMIC (Staphylococcus aureus): 5.5
MIC (Staphylococcus aureus): 3.3 µM (≈ 1.55 µg/mL)
Activity (Escherichia coli): inactive
-logMIC [2]: 5.2
MIC [2]: 6.31 µM (≈ 2.96 µg/mL)

COc1cccc(-c2[nH]c3ccc(OC)cc3c2C2=C(Br)C(=O)NC2=O)c1
Activity (Candida albicans): inactive
logP [1]: 2.79
-logMIC (Staphylococcus aureus): 5.7
MIC (Staphylococcus aureus): 1.9 µM (≈ 0.812 µg/mL)
Activity (Escherichia coli): inactive
-logMIC [2]: 4.8
MIC [2]: 15.8 µM (≈ 6.77 µg/mL)

O=C(CCc1[nH]c2ccccc2c1C1=C(Br)C(=O)NC1=O)Nc1ccccc1
Activity (Candida albicans): inactive
logP [1]: 2.42
-logMIC (Staphylococcus aureus): 6.7
MIC (Staphylococcus aureus): 0.18 µM (≈ 0.0789 µg/mL)
Activity (Escherichia coli): inactive
-logMIC [2]: 4.7
MIC [2]: 21 µM (≈ 9.2 µg/mL)

CCCCCOc1ccc(-c2[nH]c3ccccc3c2C2=C(Br)C(=O)NC2=O)cc1
Activity (Candida albicans): inactive
logP [1]: 4.2
-logMIC (Staphylococcus aureus): 6.1
MIC (Staphylococcus aureus): 0.88 µM (≈ 0.399 µg/mL)
Activity (Escherichia coli): inactive
-logMIC [2]: 3.9
MIC [2]: 126 µM (≈ 57.1 µg/mL)

CCCc1ccc2[nH]c(-c3ccc(OC)cc3)c(C3=C(Br)C(=O)NC3=O)c2c1
Activity (Candida albicans): inactive
logP [1]: 3.45
-logMIC (Staphylococcus aureus): 6.3
MIC (Staphylococcus aureus): 0.45 µM (≈ 0.198 µg/mL)
Activity (Escherichia coli): inactive
-logMIC [2]: 5.7
MIC [2]: 1.8 µM (≈ 0.791 µg/mL)

CCCCCCCCOc1ccc(-c2[nH]c3ccccc3c2C2=C(Br)C(=O)NC2=O)cc1
Activity (Candida albicans): inactive
logP [1]: 5.21
-logMIC (Staphylococcus aureus): 4.3
MIC (Staphylococcus aureus): 50 µM (≈ 24.8 µg/mL)
Activity (Escherichia coli): inactive
-logMIC [2]: 4
MIC [2]: 100 µM (≈ 49.5 µg/mL)

Cc1cccc(NC(=O)CCCc2[nH]c3ccccc3c2C2=C(Br)C(=O)NC2=O)c1
Activity (Candida albicans): inactive
logP [1]: 2.56
-logMIC (Staphylococcus aureus): 6.1
MIC (Staphylococcus aureus): 0.79 µM (≈ 0.368 µg/mL)
Activity (Escherichia coli): inactive
-logMIC [2]: 4.6
MIC [2]: 27 µM (≈ 12.6 µg/mL)

CCCCc1cccc2c(C3=C(Br)C(=O)NC3=O)c(-c3ccccc3)[nH]c12
Activity (Candida albicans): inactive
logP [1]: 3.88
-logMIC (Staphylococcus aureus): 6.6
MIC (Staphylococcus aureus): 0.25 µM (≈ 0.106 µg/mL)
Activity (Escherichia coli): inactive
-logMIC [2]: 4.8
MIC [2]: 14.7 µM (≈ 6.22 µg/mL)

CCCCc1ccc2[nH]c(-c3ccc(OC)cc3)c(C3=C(Br)C(=O)NC3=O)c2c1
Activity (Candida albicans): inactive
logP [1]: 3.83
-logMIC (Staphylococcus aureus): 6.4
MIC (Staphylococcus aureus): 0.44 µM (≈ 0.199 µg/mL)
Activity (Escherichia coli): inactive
-logMIC [2]: 5.5
MIC [2]: 3.4 µM (≈ 1.54 µg/mL)
